Measurements taken from patent publication US10487064B1, “Crystalline forms of selective S1P1 receptor modulator and preparation method thereof” (Crystal Pharmatech Co., Ltd., priority 2015, dated 2019).
Values after ≈ are worked out from the molar mass of the structure shown. “Also recorded” adds a separate entry of the source.

How the values were obtained:
[1] = Stability assessment of crystalline forms on storage (XRPD before and after); assay type: physicochemical; conditions: for stability compared with Form C in prior art: general statement; for Solid Form after storage / Crystalline form after storing: XRPD; for physical stability (overall conclusion): storage conditions of the stability assessment
Procedure: 20 mg of sample of Form 2 was stored under 25° C./60% RH, 40° C./75% RH for 6 months, and 80° C. for 3 months. […] 20 mg of sample of Form 3 was stored under 25° C./60% RH and 40° C./75% RH for 6 months.

[2] = Solubility assessment: saturated solutions in FaSSIF, FeSSIF, SGF and water, concentration by HPLC; assay type: physicochemical; conditions: for solubility compared with Form C in prior art: general statement
Procedure: Saturated solution of Form 2 and Form A, Form C disclosed in CN102177144B were prepared in FaSSIF (Fasted state simulated intestinal fluids, pH=6.5), FeSSIF (Fed state simulated intestinal fluids, pH=5.0), SGF (Simulated gastric fluids, pH=1.8), and water. Concentrations in the saturation solutions were measured after 1 hour and 24 hours by HPLC.
Form 3 and Form A, Form C were prepared into saturated solution in FaSSIF (Fasted state simulated intestinal fluids, pH=6.5), FeSSIF (Fed state simulated intestinal fluids, pH=5.0) and water. Concentrations in the saturation solutions were measured after 1 hour and 24 hours by HPLC.

[3] = cited from earlier work
[4] = treatment of moderate-to-severe chronic plaque psoriasis; cited from earlier work

SMILES	stability compared with Form C in prior art [1]	solubility compared with Form C in prior art [2]	Solubility ([2]; FaSSIF pH=6.5, 1 h)	Solubility ([2]; FaSSIF pH=6.5, 24 h)	Solubility ([2]; FeSSIF pH=5.0, 1 h)	Solubility ([2]; FeSSIF pH=5.0, 24 h)	Solubility ([2]; SGF pH=1.8, 1 h)	Solubility ([2]; SGF pH=1.8, 24 h)	other results
CCC/N=C1\S/C(=C\c2ccc(OC[C@H](O)CO)c(Cl)c2)C(=O)N1c1ccccc1C [Form 1, Ponesimod]	better	better	–	–	–	–	–	–	–
CCC/N=C1\S/C(=C\c2ccc(OC[C@H](O)CO)c(Cl)c2)C(=O)N1c1ccccc1C [Form 2, Ponesimod]	better	better	17 µg/mL (≈ 36.9 µM)	33 µg/mL (≈ 71.6 µM)	996 µg/mL (≈ 2160 µM)	813 µg/mL (≈ 1760 µM)	97 µg/mL (≈ 210 µM)	124 µg/mL (≈ 269 µM)	Solid Form after storage ([1]; 25° C./60% RH, 6 months): doesn't change; also recorded: Form 2; Solid Form after storage ([1]; 40° C./75% RH, 6 months): doesn't change; also recorded: Form 2; Solid Form after storage ([1]; 80° C., 3 months): doesn't change; also recorded: Form 2; physical stability (overall conclusion) [1]: good physical stability; solubility compared with Form A and Form C ([2]; in FaSSIF, FeSSIF, and SGF): higher
CCC/N=C1\S/C(=C\c2ccc(OC[C@H](O)CO)c(Cl)c2)C(=O)N1c1ccccc1C [Form 3, Ponesimod]	better	better	84 µg/mL (≈ 182 µM)	15 µg/mL (≈ 32.5 µM)	1168 µg/mL (≈ 2530 µM)	486 µg/mL (≈ 1050 µM)	–	–	Crystalline form after storing ([1]; 25° C./60% RH, 6 months): doesn't change; also recorded: Form 3; Crystalline form after storing ([1]; 40° C./75% RH, 6 months): doesn't change; also recorded: Form 3; physical stability (overall conclusion) [1]: good physical stability; solubility compared with Form A and Form C ([2]; in FaSSIF and FeSSIF): higher
CCC/N=C1\S/C(=C\c2ccc(OC[C@H](O)CO)c(Cl)c2)C(=O)N1c1ccccc1C [Form A, Ponesimod, reference compound]	–	–	7 µg/mL (≈ 15.2 µM)	4 µg/mL (≈ 8.68 µM)	141 µg/mL (≈ 306 µM)	163 µg/mL (≈ 354 µM)	34 µg/mL (≈ 73.8 µM)	45 µg/mL (≈ 97.6 µM)	thermodynamic stability ([3]; compared with Form C): inferior to Form C
CCC/N=C1\S/C(=C\c2ccc(OC[C@H](O)CO)c(Cl)c2)C(=O)N1c1ccccc1C [Form C, Ponesimod, reference compound]	–	–	10 µg/mL (≈ 21.7 µM)	–	133 µg/mL (≈ 289 µM)	149 µg/mL (≈ 323 µM)	29 µg/mL (≈ 62.9 µM)	24 µg/mL (≈ 52.1 µM)	solubility at 1 h ([2]; water, thermodynamic from solid, H2O, 1 h, ND = below the LOD of instrument): 3 µg/mL (≈ 6.51 µM); solubility at 24 h ([2]; water, thermodynamic from solid, H2O, 24 h, ND = below the LOD of instrument): 1 µg/mL (≈ 2.17 µM); solubility (in words) [3]: unsatisfactory
CCC/N=C1\S/C(=C\c2ccc(OC[C@H](O)CO)c(Cl)c2)C(=O)N1c1ccccc1C [Form III, Ponesimod]	–	–	–	–	–	–	–	–	form transformation ([3]; at room temperature): will transform to Form II at room temperature
CCC/N=C1\S/C(=C\c2ccc(OC[C@H](O)CO)c(Cl)c2)C(=O)N1c1ccccc1C [Ponesimod]	–	–	–	–	–	–	–	–	result of phase II mid-stage study [4]: positive results
